# According to patent US20200308170A1, “KRAS G12C INHIBITORS” (Mirati Therapeutics, Inc., priority 2017, published 2020):
# Target: KRas G12C (Homo sapiens, UniProt P01116, G12C)
# Experiment: Inhibition of KRas G12C in NCI-H358 cells measured by phosphorylated ERK (Phospho-ERK)
# Assay type: cell-based
# Conditions: 3 hours, 4 parameter fit, read-out: IC50 (pERK(Thr202/Tyr204) signal normalized with GAPDH)
# Protocol: Cells were plated in poly-D-Lysine coated 96-well plates at a concentration of 50,000 cells/well and allowed to attach for 8-12 hours. Diluted compounds were then added at a final concentration of 0.5% DMSO. After 3 hours, the medium was removed, 150 μL of 4% formaldehyde was added and the plates were incubated for 20 minutes. The plates were washed with PBS, and permeabilized using 150 μL of ice cold 100% methanol for 10 minutes. Non-specific antibody binding to the plates was blocked using 100 μL Licor Blocking Buffer (Li-Cor Biotechnology, Lincoln Nebr.) for 1 hour at room temperature. Positive control samples and samples lacking cells were parallel processed with test samples as standards.
# The amount Phospho-ERK was determined using an antibody specific for the phosphorylated form of ERK and compared to the amount of GAPDH. […] The plates were incubated for 2 hours at room temperature. The plates were washed with PBS+0.05% Tween 20.
# Secondary antibodies used to visualize primary antibodies were added as follows: Anti-rabbit-680 diluted 1:1000 and Anti-mouse-800 diluted 1:1000 in Licor Block+0.05% Tween 20 and incubated for 1 hour at room temperature. The plates were washed with PBS+0.05% Tween 20. A 100 μL aliquot of PBS was added to each well and the plates were read on a LICOR AERIUS plate reader.
# The pERK(Thr202/Tyr204) signal was normalized with the GAPDH signal and percent of DMSO control values were calculated. IC50 values were generated using a 4 parameter fit of the dose response curve.
# KRas G12C, sequence (P01116 1-188 isoform P01116-2 G12C): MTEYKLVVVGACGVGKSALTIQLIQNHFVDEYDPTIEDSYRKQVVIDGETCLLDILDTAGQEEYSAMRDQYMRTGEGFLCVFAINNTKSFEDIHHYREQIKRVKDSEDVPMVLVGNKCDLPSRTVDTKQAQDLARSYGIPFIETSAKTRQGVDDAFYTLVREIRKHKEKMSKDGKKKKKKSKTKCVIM
row,Compound,IC50 [µM]
1,C=C(F)C(=O)N1CCN(c2nc(OC3CCN(C(C)C)C3)nc3c2CCN(c2cccc4ccc(F)c(Cl)c24)C3)C[C@@H]1CC#N (stereo partly drawn) [Example 150],0.0001 to 1
2,C=C(F)C(=O)N1CCN(c2nc(OC[C@@H]3CCCN3C)nc3c2CCN(c2cccc4ccc(Cl)c(Cl)c24)C3)C[C@@H]1CC#N [Example 137],1 to 10
3,"C=C(F)C(=O)N1CCN(c2nc(OCC34CCCN3CCC4)nc3c2CCN(c2cccc4cccc(Cl)c24)C3)C[C@@H]1CC#N [Example 105, (S)-2-(4-(7-(8-chloronaphthalen-1-yl)-2-((tetrahydro-1H-pyrrolizin-7a(5H)-yl)methoxy)-5,6,7,8-tetrahydropyrido[3,4-d]pyrimidin-4-yl)-1-(2-fluoroacryloyl)piperazin-2-yl)acetonitrile]",0.0001 to 1
4,C=C(F)C(=O)N1CCN(c2nc(OCC34CCCN3CCC4)nc3c2CCN(c2cccc4ccccc24)C3)C[C@@H]1CC#N [Example 146],0.0001 to 1
5,"C=C(F)C(=O)N1CCN(c2nc(OCC34CCCN3CCC4)nc3c2CCN(c2cccc4ccc(F)c(Cl)c24)C3)C[C@@H]1CC#N [Example 138, (S)-2-(4-(7-(8-chloro-7-fluoronaphthalen-1-yl)-2-((tetrahydro-1H-pyrrolizin-7a(5H)-yl)methoxy)-5,6,7,8-tetrahydropyrido[3,4-d]pyrimidin-4-yl)-1-(2-fluoroacryloyl)piperazin-2-yl)acetonitrile]",0.0001 to 1
6,C=C(F)C(=O)N1CCN(c2nc(OCCN(CC)CC)nc3c2CCN(c2cccc4ccc(F)c(Cl)c24)C3)C[C@@H]1CC#N [Example 159],0.0001 to 1
7,C=C(F)C(=O)N1CCN(c2nc(OCC(C)N3C[C@@H](C)O[C@@H](C)C3)nc3c2CCN(c2cccc4ccc(F)c(Cl)c24)C3)C[C@@H]1CC#N (stereo partly drawn) [Example 164],1 to 10
8,"C=C(F)C(=O)N1CCN(c2nc(OCCN(C)CC(F)(F)F)nc3c2CCN(c2cccc4ccc(F)c(Cl)c24)C3)C[C@@H]1CC#N [Example 148, (S)-2-(4-(7-(8-chloro-7-fluoronaphthalen-1-yl)-2-(2-(methyl(2,2,2-trifluoroethyl)amino)ethoxy)-5,6,7,8-tetrahydropyrido[3,4-d]pyrimidin-4-yl)-1-(2-fluoroacryloyl)piperazin-2-yl)acetonitrile]",1 to 10
9,C=C(F)C(=O)N1CCN(c2nc(OCC34CCCN3C[C@H](F)C4)nc3c2CCN(c2cccc4ccc(F)c(Cl)c24)C3)C[C@@H]1CC#N (stereo partly drawn) [Example 156],0.0001 to 1
10,"C=C(F)C(=O)N1CCN(c2nc(OC[C@@H]3CCCN3C)nc3c2CCN(c2cccc4ccc(F)c(C)c24)C3)C[C@@H]1CC#N [Example 131, 2-((S)-4-(7-(7-fluoro-8-methylnaphthalen-1-yl)-2-(((S)-1-methylpyrrolidin-2-yl)methoxy)-5,6,7,8-tetrahydropyrido[3,4-d]pyrimidin-4-yl)-1-(2-fluoroacryloyl)piperazin-2-yl)acetonitrile]",0.0001 to 1
11,C=C(F)C(=O)N1CCN(c2nc(OCC34CCCN3CCC4)nc3c2CCN(c2cccc(C)c2C(F)(F)F)C3)C[C@@H]1CC#N [Example 144],0.0001 to 1
12,C=C(F)C(=O)N1CCN(c2nc(OCC34CCC(CC3)N4C)nc3c2CCN(c2cccc4ccc(F)c(Cl)c24)C3)C[C@@H]1CC#N [Example 171],0.0001 to 1
13,C=C(F)C(=O)N1CCN(c2nc(OCC3CN(C)C3)nc3c2CCN(c2cccc4ccc(F)c(Cl)c24)C3)C[C@@H]1CC#N [Example 173],0.0001 to 1
14,C=C(F)C(=O)N1CCN(c2nc(OCC34CCCN3CCC4)nc3c2CCN(c2cccc(C)c2C)C3)C[C@@H]1CC#N [Example 142],0.0001 to 1
15,"COC/C=C/C(=O)N1CCN(c2nc(OC[C@@H]3CC(F)(F)CN3C)nc3c2CCN(c2cccc4cccc(C)c24)C3)C[C@@H]1CC#N [Example 60, 2-((S)-4-(2-(((S)-4,4-difluoro-1-methylpyrrolidin-2-yl)methoxy)-7-(8-methylnaphthalen-1-yl)-5,6,7,8-tetrahydropyrido[3,4-d]pyrimidin-4-yl)-1-((E)-4-methoxybut-2-enoyl)piperazin-2-yl)acetonitrile]",0.0001 to 1
16,C=C(F)C(=O)N1CCN(c2nc(OC[C@@H]3CCCN3C)nc3c2CCN(c2cccc4ccc(F)c(F)c24)C3)C[C@@H]1CC#N [Example 136],0.0001 to 1
17,C=C(F)C(=O)N1CCN(c2nc(OC[C@@H]3CCCN3C)nc3c2CCN(c2cccc4ccc(F)c(Cl)c24)C3)C[C@@H]1CC#N [Example 133],0.0001 to 1
18,C=C(F)C(=O)N1CCN(c2nc(OC[C@@H]3C[C@@H](F)CN3C)nc3c2CCN(c2cccc4ccc(F)c(Cl)c24)C3)C[C@@H]1CC#N [Example 172],0.0001 to 1
19,C=C(F)C(=O)N1CCN(c2nc(OCC34CCCN3CCC4)nc3c2CCN(c2cccc4cccc(Br)c24)C3)C[C@@H]1CC#N [Example 143],0.0001 to 1
20,C=C(F)C(=O)N1CCN(c2nc(OCC3CC4(CC4)CN3C)nc3c2CCN(c2cccc4ccc(F)c(Cl)c24)C3)C[C@@H]1CC#N (stereo partly drawn) [Example 160],0.0001 to 1
21,"CN1CC(F)(F)C[C@H]1COc1nc2c(c(N3CCN(C(=O)/C=C/CN4CC(F)C4)[C@@H](CC#N)C3)n1)CCN(c1cccc3cccc(Cl)c13)C2 [Example 57, 2-((S)-4-(7-(8-chloronaphthalen-1-yl)-2-(((S)-4,4-difluoro-1-methylpyrrolidin-2-yl)methoxy)-5,6,7,8-tetrahydropyrido[3,4-d]pyrimidin-4-yl)-1-((E)-4-(3-fluoroazetidin-1-yl)but-2-enoyl)piperazin-2-yl)acetonitrile]",1 to 10

# Now from value to compound:
row,IC50 [µM],Compound
1,0.0001 to 1,"C=C(F)C(=O)N1CCN(c2nc(OC[C@@H]3C[C@@H](OC)CN3)nc3c2CCN(c2cccc4ccc(F)c(Cl)c24)C3)C[C@@H]1CC#N [Example 210, 2-((S)-4-(7-(8-chloro-7-fluoronaphthalen-1-yl)-2-(((2S,4R)-4-methoxypyrrolidin-2-yl)methoxy)-5,6,7,8-tetrahydropyrido[3,4-d]pyrimidin-4-yl)-1-(2-fluoroacryloyl)piperazin-2-yl)acetonitrile]"
2,0.0001 to 1,C=C(F)C(=O)N1CCN(c2nc(OCCN3C[C@@H]4CC3CO4)nc3c2CCN(c2cccc4ccc(F)c(Cl)c24)C3)C[C@@H]1CC#N [Example 193]
3,0.0001 to 1,C=C(F)C(=O)N1CCN(c2nc(OCC3CCCO3)nc3c2CCN(c2cccc4ccc(F)c(Cl)c24)C3)C[C@@H]1CC#N (stereo partly drawn) [Example 176]
4,0.0001 to 1,C=C(F)C(=O)N1CCN(c2nc(OCCNCC(F)(F)F)nc3c2CCN(c2cccc4ccc(F)c(Cl)c24)C3)C[C@@H]1CC#N [Example 200]
5,0.0001 to 1,C=C(F)C(=O)N1CCN(c2nc(OCC3COC3)nc3c2CCN(c2cccc4ccc(F)c(Cl)c24)C3)C[C@@H]1CC#N [Example 197]
6,0.0001 to 1,C=C(F)C(=O)N1CCN(c2nc(OC[C@@H]3[C@@H]4CC[C@@H](C4)N3C)nc3c2CCN(c2cccc4ccc(F)c(Cl)c24)C3)C[C@@H]1CC#N [Example 190]
7,0.0001 to 1,"C=C(F)C(=O)N1CCN(c2nc(OC[C@@H]3C[C@@H](F)CN3)nc3c2CCN(c2cccc4ccc(F)c(Cl)c24)C3)C[C@@H]1CC#N [Example 209, 2-((S)-4-(7-(8-chloro-7-fluoronaphthalen-1-yl)-2-(((2S,4R)-4-fluoropyrrolidin-2-yl)methoxy)-5,6,7,8-tetrahydropyrido[3,4-d]pyrimidin-4-yl)-1-(2-fluoroacryloyl)piperazin-2-yl)acetonitrile]"
8,0.0001 to 1,C=C(F)C(=O)N1CCN(c2nc(OCC3N(C)CC3(C)C)nc3c2CCN(c2cccc4ccc(F)c(Cl)c24)C3)C[C@@H]1CC#N (stereo partly drawn) [Example 187]
9,0.0001 to 1,C=C(F)C(=O)N1CCN(c2nc(OCCc3nccn3C)nc3c2CCN(c2cccc4ccc(F)c(Cl)c24)C3)C[C@@H]1CC#N [Example 191]
10,0.0001 to 1,C=C(F)C(=O)N1CCN(c2nc(OCC3(CC)CCCN3C)nc3c2CCN(c2cccc4ccc(F)c(Cl)c24)C3)C[C@@H]1CC#N (stereo partly drawn) [Example 175]
11,0.0001 to 1,C=C(F)C(=O)N1CCN(c2nc(OC[C@H]3CN(C)CCO3)nc3c2CCN(c2cccc4ccc(F)c(Cl)c24)C3)C[C@@H]1CC#N [Example 195]
12,0.0001 to 1,C=C(F)C(=O)N1CCN(c2nc(OC[C@@H]3CC4CCN3C4)nc3c2CCN(c2cccc4ccc(F)c(Cl)c24)C3)C[C@@H]1CC#N (stereo partly drawn) [Example 180]
13,0.0001 to 1,C=C(F)C(=O)N1CCN(c2nc(OCC34CCCN3CC(F)(F)C4)nc3c2CCN(c2cccc4ccc(F)c(Cl)c24)C3)C[C@@H]1CC#N (stereo partly drawn) [Example 174]
14,0.0001 to 1,C=C(F)C(=O)N1CCN(c2nc(OCC3CCN3CC)nc3c2CCN(c2cccc4ccc(F)c(Cl)c24)C3)C[C@@H]1CC#N (stereo partly drawn) [Example 179]
15,0.0001 to 1,"COC/C=C(\F)C(=O)N1CCN(c2nc(OCC34CCCN3CCC4)nc3c2CCN(c2cccc4ccc(F)c(Cl)c24)C3)C[C@@H]1CC#N [Example 206, (S, Z)-2-(4-(7-(8-chloro-7-fluoronaphthalen-1-yl)-2-((tetrahydro-1H-pyrrolizin-7a(5H)-yl)methoxy)-5,6,7,8-tetrahydropyrido[3,4-d]pyrimidin-4-yl)-1-(2-fluoro-4-methoxybut-2-enoyl)piperazin-2-yl)acetonitrile]"
